Experiments:
NET [1] = molecular target: T1, NET (Homo sapiens, UniProt P23975); assay: NET mediated uptake kinetics in SK-N-SH cells; format: cell-based; parameters: endogenous in cells; host or cells: SK-N-SH
Experimental: The affinity (Ki) was determined in a competition binding assay by incubating ^19F-imaging agent-1, a cold analog of imaging agent-1, or NE with ^3H-desmethylimipramine in cell membrane overexpressing human NET. The uptake selectivity was assessed by measuring imaging agent-1 or ^3H-NE cell uptake with and without pretreatment of desipramine, a selective NET inhibitor, in SK—N—SH (human neuroblastoma) and PC-12 (rat pheochromocytoma) cells. In SK—NSH cells, the uptake kinetics (Km and Vmax) were evaluated by measuring NET mediated uptake of imaging agent-1 or NE at various concentrations. Imaging agent-1 cardiac image quality was evaluated by PET imaging (˜1.5 mCi, i.v.) in rabbits in the presence and absence of desipramine (1 mg/kg).

[2] = Whole organ bio-distribution and dosimetry from PET in healthy subjects; format: in vivo, human
Experimental: Whole organ bio-distribution and dosimetry for ^18F-labeled imaging agent-1 were determined based on PET image data from twelve healthy subjects. Image quantification, kinetic modeling to determine residence times, and dosimetry analysis were performed.
Head to mid-thigh PET image data for twelve healthy subjects were obtained using ^18F labeled imaging agent-1 at approximately 17, 31, 45, 117, 190, and 225 minutes post injection. Additionally, leg images were also obtained at approximately 66 and 274 minutes post injection. Image data were attenuation corrected at the imaging site, and were quantified based on the Medical Internal Radiation Dosimetry (MIRD) 16 methodology to determine kinetic data in all organs showing significant uptake of activity. Dosimetry estimates were created via kinetic modeling of the quantified image data to determine residence times, and the standard MIRD methodology using a method similar. Kinetic data, residence times, and the dosimetry estimates were reported for each subject and as summary statistics.

NET [3] = molecular target: T1, NET; assay: Competition binding assay in cell membranes over-expressing human NET; parameters: expressed in transfected cells
Experimental: Imaging agent-1 was designed as a substrate for the norepinephrine transporter (NET) to image the cardiac sympathetic nervous system. […] In animals, tissue biodistribution of imaging agent-1 was assessed by tissue sampling at 15- and 60-minute following administration.
The affinity (Ki) was determined in a competition binding assay by incubating ^19F-imaging agent-1, a cold analog of imaging agent-1, or NE with ^3H-desmethylimipramine in cell membrane overexpressing human NET. […] In SK—NSH cells, the uptake kinetics (Km and Vmax) were evaluated by measuring NET mediated uptake of imaging agent-1 or NE at various concentrations. Imaging agent-1 cardiac image quality was evaluated by PET imaging (˜1.5 mCi, i.v.) in rabbits in the presence and absence of desipramine (1 mg/kg).

[4] = Dosimetry in non-human primates to estimate human radiation dosimetry; format: in vivo, cynomolgus monkeys
Experimental: Dosimetry in non-human primates of imaging agent-1 was examined. Imaging agent-1, which is labeled with ^18F, is a novel norepinephrine transporter (NET) ligand and was a useful radiotracer for mapping the cardiac nerve terminal in vivo using positron emission tomography. A study was performed in four non-human primates to estimate human radiation dosimetry.
In this study two male and two female cynomolgus monkeys were imaged using a Concord Focus 220 MicroPET scanner for whole body ^18F distribution following 4 to 5 mCi (0.65 to 1.6 μg) single intravenous injection of imaging agent-1. Under isoflurane anesthesia, images of the animals from head to lower abdomen were acquired in 5 segments over four and half hours following injection. Radioactivity in identifiable organs and the remainder of the body was determined as a function of time using region-of-interest analysis. The total number of disintegrations per unit injected dose was determined by normalizing by the injected radioactivity and integrating over time the data for radioactivity versus time. Using the OLINDA/EXM software (Organ Level Internal Dose Assessment/EXponential Modeling Software, published by Vanderbilt University), the normalized number of ^18F disintegrations for each organ was combined with the energy released by each disintegration, and using the MIRD schema, estimates were made of the fraction of the total released energy that was retained in each source organ and the contribution from each source organ to the energy deposited in surrounding target organs for an adult human. Dividing the total fractional energy deposited in each organ by the corresponding organ mass yielded the radiation dose for that organ per unit (mCi or MBq) injected dose.

[5] = estimated from cynomolgus monkey PET

T1 sequence (P23975 whole entry): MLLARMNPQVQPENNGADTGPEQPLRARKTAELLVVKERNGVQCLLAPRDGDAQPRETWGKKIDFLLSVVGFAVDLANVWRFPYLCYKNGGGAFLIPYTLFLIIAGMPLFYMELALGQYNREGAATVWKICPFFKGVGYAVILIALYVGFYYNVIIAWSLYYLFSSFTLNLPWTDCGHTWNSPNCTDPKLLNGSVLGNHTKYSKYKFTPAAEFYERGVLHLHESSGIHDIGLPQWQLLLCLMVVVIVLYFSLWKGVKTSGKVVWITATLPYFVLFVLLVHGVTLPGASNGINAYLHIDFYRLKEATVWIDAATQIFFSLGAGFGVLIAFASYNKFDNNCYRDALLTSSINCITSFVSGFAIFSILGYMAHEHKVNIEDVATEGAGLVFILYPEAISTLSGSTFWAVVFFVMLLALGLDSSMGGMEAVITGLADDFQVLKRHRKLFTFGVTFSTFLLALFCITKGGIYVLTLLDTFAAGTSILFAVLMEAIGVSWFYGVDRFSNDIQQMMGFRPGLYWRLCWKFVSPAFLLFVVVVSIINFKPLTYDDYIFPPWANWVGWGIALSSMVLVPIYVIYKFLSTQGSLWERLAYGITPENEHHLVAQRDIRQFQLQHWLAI

SMILES: N=C(N)NCc1ccc(OCCC[18F])c(Br)c1 [imaging agent-1, 1-{3-Bromo-4-[3-[^18F]fluoropropoxy]benzyl}guanidine]
- Vmax (NET mediated uptake) (NET [1]): 6.0±1.3 pMol/million cells/min
- Ratio of myocardial to liver radioactivity ([2]; at 4 hours): more than two
- Peak uptake, liver ([2]; average): approximately 15.5 % of the injected activity
- Peak uptake, urinary bladder ([2]; average): approximately 18.3 % of the injected activity
- Injected dose remaining in the myocardium ([2]; decay-corrected, through 4 hours after injection): above 1.5 % of ID
- Blood radioactivity clearance ([2]; human, in vivo): cleared quickly
- Lung activity ([2]; human, in vivo): low throughout the study
- Tolerability ([2]; human, in vivo): well tolerated
- Injected dose seen in the myocardium initially ([2]; initially): Approximately 1.6 % of the injected dose (ID)
- Ratio of myocardial to liver radioactivity ([2]; initially): approximately one
- Adverse events ([2]; twelve healthy subjects): No adverse events
- Ki (NET [3]; Example 25, cell membranes over-expressing the human NET): 5.16 ± 0.93 µM
- Ki (NET [3]; Example 27, ^19F cold analog or NE vs ^3H-desmethylimipramine, membrane overexpressing human NET): 5.2 ± 1.1 µM
- Maximum administered dose that does not exceed 10 mSv effective dose ([4]; based on average values): 14 mCi
- Maximum dose that may be administered to a human without exceeding 50 mSv (5 rem) to the urinary bladder ([4]; based on average values): 12 mCi
- Mean effective dose as defined in ICRP 60 [4, 5]: 0.070±0.0059 rem/mCi
- Mean whole body dose estimate [4, 5]: 0.044±0.00031 rem/mCi
- Predicted human radiation dose estimate, adrenals [4, 5]: 0.14±0.027 rem/mCi
- Predicted human radiation dose estimate, heart wall [4, 5]: 0.085±0.014 rem/mCi
- Predicted human radiation dose estimate, kidneys [4, 5]: 0.15±0.088 rem/mCi
- Predicted human radiation dose estimate, osteogenic cells [4, 5]: 0.084±0.0048 rem/mCi
- Predicted human radiation dose estimate, red bone marrow [4, 5]: 0.083±0.0099 rem/mCi
- Predicted human radiation dose estimate, urinary bladder wall ([4]; estimated from cynomolgus monkey PET, OLINDA/EXM): 0.41±0.089 rem/mCi
